# Assay results: article PMC9706563, “Development of Macrocyclic PRMT5–Adaptor Protein Interaction Inhibitors” (Journal of Medicinal Chemistry, 2022)
# Entries after “also recorded” stand apart in the source; their conditions may differ. Where two headings read alike, the source gives them in different places.
# How the values were obtained:
# PRMT5-MEP50 [1] = target: T1, PRMT5-MEP50 (Homo sapiens, UniProt O14744); assay: Competitive binding FP assay, FITC-labeled 50 as tracer
# T1 construct: The compounds were tested by means of FP with the full-length PRMT5-MEP50 complex; made in house
# T1 sequence (O14744 whole entry): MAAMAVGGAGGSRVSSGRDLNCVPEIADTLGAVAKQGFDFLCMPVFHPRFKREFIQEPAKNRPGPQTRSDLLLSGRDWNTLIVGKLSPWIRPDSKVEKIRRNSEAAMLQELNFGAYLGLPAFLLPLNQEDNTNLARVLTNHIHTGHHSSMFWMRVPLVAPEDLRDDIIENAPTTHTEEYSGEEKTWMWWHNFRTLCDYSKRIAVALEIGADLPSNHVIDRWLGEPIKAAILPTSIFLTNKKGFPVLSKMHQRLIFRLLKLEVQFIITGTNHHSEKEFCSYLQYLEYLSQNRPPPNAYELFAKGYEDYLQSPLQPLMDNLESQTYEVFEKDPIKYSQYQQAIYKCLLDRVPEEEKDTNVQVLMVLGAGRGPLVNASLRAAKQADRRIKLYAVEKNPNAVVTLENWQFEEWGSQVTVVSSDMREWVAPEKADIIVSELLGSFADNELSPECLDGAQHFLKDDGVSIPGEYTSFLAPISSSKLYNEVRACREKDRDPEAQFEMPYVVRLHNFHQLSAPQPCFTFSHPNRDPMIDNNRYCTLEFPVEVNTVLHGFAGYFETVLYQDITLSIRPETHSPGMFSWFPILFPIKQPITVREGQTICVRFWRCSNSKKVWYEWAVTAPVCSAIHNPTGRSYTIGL
# T1 sequence (Q9BQA1 whole entry partner): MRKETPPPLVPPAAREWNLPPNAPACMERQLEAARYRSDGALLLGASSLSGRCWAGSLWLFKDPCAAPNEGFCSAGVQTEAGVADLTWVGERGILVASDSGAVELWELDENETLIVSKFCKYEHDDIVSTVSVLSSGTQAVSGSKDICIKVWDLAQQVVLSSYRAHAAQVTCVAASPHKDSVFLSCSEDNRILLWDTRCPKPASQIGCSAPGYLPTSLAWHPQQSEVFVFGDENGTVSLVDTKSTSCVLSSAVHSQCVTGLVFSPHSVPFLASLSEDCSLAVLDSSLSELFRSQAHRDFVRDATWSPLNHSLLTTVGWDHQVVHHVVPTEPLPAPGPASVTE
# Protocol: (§1) The competitive binding assay was performed in a buffer of 50 mM HEPES, 250 mM NaCl, 1 mM TCEP, and 0.01% (v/v) Tween 20, 8.0 pH, in black, 384-well plates with a total volume of 10 μL per well. The FITC-labeled peptides or the Alexa 488-labeled pICln protein, at a final concentration of 1 nM, were mixed with PRMT5-MEP50 (at a final concentration of 194 nM when used with peptide 50, 600 nM with compound S1 [see Table S3] and 21, and 27 nM in the case of Alexa 488-labeled pICln), and the appropriate nonlabeled peptide or protein was titrated as two-fold dilution series. The plates were incubated at room temperature for up to 1 h 45 min and analyzed on a plate reader using 485 nm excitation and 535 nm emission wavelength. The experiment was performed in triplicate.
# TIM-MEP50 complex = target: T2, TIM-MEP50 complex (Homo sapiens, UniProt O14744); assay: Thermal shift assay (TSA); format: binding; conditions: for TSA Average Tm (°C): supplementary CSV; for increase of the average melting temperature: TSA, PRMT5 TIM barrel-MEP50 complex, n = 6
# T2 construct: made in house
# T2 sequence (O14744 13-292 limits assumed): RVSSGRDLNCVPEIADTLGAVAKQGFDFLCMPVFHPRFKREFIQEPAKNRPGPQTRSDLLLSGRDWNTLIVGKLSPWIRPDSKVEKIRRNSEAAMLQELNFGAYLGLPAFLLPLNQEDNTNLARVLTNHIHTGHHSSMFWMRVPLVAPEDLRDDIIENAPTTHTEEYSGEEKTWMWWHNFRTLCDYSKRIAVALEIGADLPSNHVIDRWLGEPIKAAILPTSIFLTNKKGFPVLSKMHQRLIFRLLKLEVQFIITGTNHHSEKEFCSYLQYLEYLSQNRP
# T2 sequence (Q9BQA1 whole entry partner): as the sequence (Q9BQA1 whole entry partner) above
# Protocol: Thermal Shift Assays of peptides on the TIM-MEP50 complex were carried out in a 96-well PCR plate (LightCycler 480 Multiwell Plates 96, white, 04729692001). The purified protein complex was appropriately diluted in a buffer containing 50 mM HEPES (pH = 8.0), 250 mM NaCl, and 1 mM TCEP. All assay experiments used 5.36 μg of protein per well and […] 5000X Sypro Orange (Invitrogen) up to a total volume of 25 μL, with a resultant protein concentration of 3 μM and 5X SYPRO. Peptides were supplied at 10 mM concentration in DMSO. The PCR plates were sealed with an optical seal (LightCycler 480 Sealing Foil, 04729757001), shaken, and centrifuged after protein and compounds were added. Thermal scanning (25–95 °C at 1 °C/min) was performed using a real-time PCR setup (LightCycler 480 – Roche), and fluorescence intensity was measured after every temperature increment step. Analysis of the raw data was performed using internally developed software. Statistical validation of Tm shift relevance was performed using the Student’s t test (n = 6).
# PRMT5-MEP50 [2] = target: T1, PRMT5-MEP50; assay: MTase-Glo methyltransferase activity assay; format: biochemical; conditions: H4 histone tail peptide substrate
# Protocol: The assay was performed in 1× reaction buffer of 20 mM Tris, 50 mM NaCl, 1 mM EDTA, 3 mM MgCl2, 0.1 mg/mL BSA, and 1 mM DTT at pH = 8.0 in white, 384-well plates. […] The plate was incubated at 20–21 °C for 1 h. MTase-Glo detection solution (5 μL) was added, and the plate was incubated at 20–21 °C for 1 h, followed by a luminescence measurement at a plate reader. The experiment was performed in triplicate.
# [3] = Stability assay in cell lysate; format: in vitro ADME
# Protocol: To the whole cell lysate prepared from U2OS cells with the freeze–thaw method was added the appropriate peptide, resulting in a mixture of 0.5 mg/mL protein and 600 μM peptide in PBS, and incubated at 37 °C. The samples were taken at 0, 15, 30 min, 1, 2, 4 h, 1, 3, and 7-days time points and mixed with an equal volume of ice-cold ethylparaben solution in MeOH (0.1 mg/mL), used as the internal standard. The samples were kept on ice for 15 min and centrifuged at 16,873 × g at 4 °C for 5 min. The obtained supernatant was then analyzed by HPLC, the peptide and the internal standard peaks at 210 nm were integrated, and the ratio of the peptide peak surface area to the internal standard was calculated. The experiment was conducted in duplicate.
# PRMT5-MEP50 [4] = target: T1, PRMT5-MEP50; assay: Competitive binding FP assay, compound 21 as tracer
# Protocol: as §1
# PRMT5-MEP50 + pICln = target: T3, PRMT5-MEP50 + pICln (Homo sapiens, UniProt O14744); assay: Competitive FP assay with Alexa 488-labeled full-length human pICln; format: binding
# T3 construct: made in house
# T3 sequence (O14744 whole entry): as the sequence (O14744 whole entry) above
# T3 sequence (Q9BQA1 whole entry partner): as the sequence (Q9BQA1 whole entry partner) above
# Protocol: To a solution of the full-length pICln protein (ca. 1 mg/mL) in 0.2 M bicarbonate buffer with 1 mM TCEP at pH 8.3 was added 10 mM Alexa […] in DMSO (8 equiv). The solution was kept on ice under dark conditions overnight. The protein was washed 8–10 times with a buffer intended for the fluorescence polarization assay (50 mM HEPES, 250 mM NaCl, 1 mM TCEP, 8.0 pH) using an Amicon Ultra-0.5 mL spin filter (Merck, Germany). Protein concentration was determined using the NanoDrop spectrophotometer.
# The competitive binding assay was performed in a buffer of 50 mM HEPES, 250 mM NaCl, 1 mM TCEP, and 0.01% (v/v) Tween 20, 8.0 pH, in black, 384-well plates with a total volume of 10 μL per well. […] The plates were incubated at room temperature for up to 1 h 45 min and analyzed on a plate reader using 485 nm excitation and 535 nm emission wavelength. The experiment was performed in triplicate.
# PRMT5-MEP50 complex = target: T4, PRMT5-MEP50 complex (Homo sapiens, UniProt O14744); assay: Pull-down with peptides immobilized on DBCO beads, MCF7 cell lysate; format: binding; conditions: for enrichment of the PRMT5-MEP50 complex by immobilized peptide: MCF7 cell lysate, DBCO beads, western blot
# T4 construct: endogenous in cells; host or cells: MCF7
# T4 sequence (O14744 whole entry): as the sequence (O14744 whole entry) above
# T4 sequence (Q9BQA1 whole entry partner): as the sequence (Q9BQA1 whole entry partner) above
# Protocol: DBCO agarose beads (300 μL; Jena Bioscience, Germany) were washed three times with PBS (600 μL, pH 7.4). To the beads suspended in PBS (600 μL) was added a 10 mM solution of azide-labeled peptide in DMSO or pure DMSO. The obtained suspensions were incubated overnight at 4 °C. The beads were washed with PBS three times for 10 min. MCF7 cells were harvested and lysed using Triton X100 lysis buffer (NaCl 150 mM, HEPES 25 mM, TCEP 1 mM, 1% Triton x100, 1% NP40 alternative, protease, and phosphatase inhibitor, pH 7.4). Empty beads, beads bound to an active peptide (55), or beads bound to a scrambled peptide (56) were added to the lysate (6 mg/mL) and rotated at 4 °C overnight. Beads attached to the active peptides were also incubated in the lysate containing a nonimmobilized/free active macrocycle (53 at 100 μM). Beads were collected by centrifugation (800g for 1 min) and washed three times for 10 min with PBS (500 μL). The beads were suspended in SDS-PAGE protein loading buffer (20 uL; […], 8% v/v glycerol, 2% SDS, […] (DTE), 0.02% bromophenol blue, pH 6.8), heated with shaking for 10 min at 95 °C, and centrifuged at 350 rpm. The obtained solutions were analyzed by western blotting using 10% acrylamide gels, and PVDF membranes and the relevant proteins were fluorescently detected using antibodies against PRMT5 and MEP50 and the corresponding secondary IRDye antibodies.
# [5] = target: T5, PRMT5-MEP50 / RioK1 interaction (Homo sapiens, UniProt O14744); assay: GFP immunopurification from Flp-In T-REx 293 S100 extracts, RioK1 readout; format: binding; conditions: 50 μM
# T5 construct: expressed in transfected cells; host or cells: Flp-In T-REx 293
# T5 sequence (O14744 whole entry): as the sequence (O14744 whole entry) above
# T5 sequence (Q9BQA1 whole entry partner): as the sequence (Q9BQA1 whole entry partner) above
# Protocol: (§2) Harvested Flp-In T-Rex 293 cells were incubated with Roeder A buffer[32] in three times sample weight for 10 min at room temperature, dounced 10 times, and adjusted to 150 mM NaCl. After centrifugation at 17,000 g for 30 min, the supernatants (S100 extracts) were used for immunopurification and treatment with inhibitors.
# (§3) For the treatment, the S100 extracts of GFP, GFP-PRMT5, GFP-RioK1, and GFP-pICln were incubated with DMSO, active 53, and scrambled 54, used at a concentration of 50 μM. The incubation with the S100 extract was carried out for 1 h at room temperature. For GFP immunopurification, S100 extracts were incubated with GFP-Trap_A beads (ChromoTek) at 4 °C for 2 h with rotation. Purified proteins were washed 3 times with washing buffer (150 mM NaCl, 50 mM Tris/HCl pH 7.5, 1 mM EDTA, 1 mM EGTA, and 0.01% Igepal with protease inhibitors), eluted in sample buffer [375 mM Tris pH 7.5; 25.8% (w/v) glycerol; 12.3% (w/v) SDS; 0.06% (w/v) bromophenol blue; and 6% (v/v) β-mercaptoethanol; pH 6.8], and analyzed by immunoblotting.
# (§4) Immunopurification samples were separated by Tris/Tricine or Tris/Glycine SDS gel electrophoresis[33] and transferred to PVDF membranes (Immobilon-FL, Merck Millipore). The immunoblot analysis was performed using the indicated antibodies against RioK1, PRMT5, MEP50, pICln, and GFP, and the signals were detected with an Odyssey LI-COR Imaging System.
# [6] = target: T6, PRMT5-MEP50 / pICln interaction (Homo sapiens, UniProt O14744); assay: GFP immunopurification from Flp-In T-REx 293 S100 extracts, pICln readout; format: binding; conditions: 50 μM
# T6 construct: expressed in transfected cells; host or cells: Flp-In T-REx 293
# T6 sequence (O14744 whole entry): as the sequence (O14744 whole entry) above
# T6 sequence (Q9BQA1 whole entry partner): as the sequence (Q9BQA1 whole entry partner) above
# Protocol: as §2, §3, §4
compound,measurement,setting,value
CC(=O)N[C@H](C(=O)N1CCC[C@H]1C(=O)NC1CCCCC[C@@H](C(=O)N[C@@H](CC(=O)O)C(=O)N[C@@H](C)C(=O)N[C@@H](CC(=O)O)C(N)=O)NC(=O)[C@H](Cc2ccccc2)NC(=O)[C@H](CCC(N)=O)NC1=O)C(C)C (stereo in doubt) [Compound 30],IC50,"PRMT5-MEP50 [1]; competitive FP, compound 50 as tracer, 194 nM PRMT5-MEP50",1060 ± 240 nM
same,TSA Average Tm (°C),TIM-MEP50 complex,51.32 ± 0.00 °C
same,effect on direct methylation activity of PRMT5,PRMT5-MEP50 [2],has no effect; also recorded: does not interfere with the direct methylation activity of the enzyme
same,half-life,"[3]; U2OS cell lysate, 37 °C, 600 μM peptide, read-out: half-life (converted)",12.5 days
same,increase of half-life over the linear 31,"[3]; cell lysate, 37 °C",70 fold
same,Half-llife in Lysate,[3]; supplementary CSV,12.5 days
same,IC50,"PRMT5-MEP50 [4]; competitive FP, compound 21 as tracer, 600 nM PRMT5-MEP50",1170 ± 290 nM
same,Ki,PRMT5-MEP50 [4]; from competitive FP with tracer 21,313 ± 121 nM
same,IC50,"PRMT5-MEP50 + pICln; competition with labeled pICln, supplementary CSV, read-out: PRMT5-MEP50 + pICln IC50",3200 ± 2400 nM
CC(=O)N[C@H](C(=O)N1CCC[C@H]1C(=O)NC1CCCCC[C@@H](C(=O)N[C@@H](CC(=O)O)C(=O)N[C@@H](C)C(=O)N[C@@H](CC(C(=O)O)C(=O)O)C(N)=O)NC(=O)[C@H](Cc2ccc([N+](=O)[O-])cc2)NC(=O)[C@H](CCC(N)=O)NC1=O)C(C)C (stereo in doubt) [Compound 53],competition of free peptide with immobilized 55,PRMT5-MEP50 complex; 100 μM nonimmobilized peptide in MCF7 lysate,demonstrated competition between the immobilized and free peptide
same,increase of the average melting temperature,TIM-MEP50 complex,2.27 °C
same,TSA Average Tm (°C),TIM-MEP50 complex,51.75 ± 0.42 °C
same,enrichment of RioK1 with GFP-PRMT5,[5]; GFP-PRMT5 IP,enrichment of RioK1 was blocked
same,interaction of RioK1 with PRMT5-MEP50,[5]; GFP-RioK1 IP,fully inhibited RioK1 from interacting with the PRMT5-MEP50 complex
same,binding of pICln to the complex with GFP-PRMT5,[6]; GFP-PRMT5 IP,binding of pICln to the complex was not inhibited
same,interaction of pICln with PRMT5-MEP50,[6]; GFP-pICln IP,pICln still engaged with it
CC(=O)N1CCC[C@H]1C(=O)N[C@H](C(=O)N[C@@H]1CCCCC[C@@H](C(=O)N[C@@H](Cc2ccc([N+](=O)[O-])cc2)C(=O)N[C@@H](CC(C(=O)O)C(=O)O)C(=O)N[C@@H](CCC(N)=O)C(N)=O)NC(=O)[C@H](CC(=O)O)NC(=O)[C@H](C)NC1=O)C(C)C [Compound 54],Ki,PRMT5-MEP50 [1]; from competitive FP with tracer 50,n.b.
same,PRMT5-MEP50 Ki (µM),"PRMT5-MEP50 [1]; from competitive FP with tracer 50, supplementary CSV",nb
same,increase of the average melting temperature,TIM-MEP50 complex,No stabilization
same,TSA Average Tm (°C),TIM-MEP50 complex,49.32 ± 0.18 °C
same,IC50,"PRMT5-MEP50 + pICln; competition with Alexa 488-labeled pICln, 27 nM PRMT5-MEP50",did not compete
same,PRMT5-MEP50 + pICln IC50 (µM),"PRMT5-MEP50 + pICln; competition with labeled pICln, supplementary CSV",nb
CC(=O)N[C@H](C(=O)N1CCC[C@H]1C(=O)N[C@@H]1CCCCC[C@@H](C(=O)N[C@@H](CC(=O)O)C(=O)N[C@@H](C)C(=O)N[C@@H](CC(C(=O)O)C(=O)O)C(=O)N[C@@H](CCCCNC(=O)COCCOCCOCCN=[N+]=[N-])C(N)=O)NC(=O)[C@H](Cc2ccc([N+](=O)[O-])cc2)NC(=O)[C@H](CCC(N)=O)NC1=O)C(C)C [Compound 55],enrichment of the PRMT5-MEP50 complex by immobilized peptide,PRMT5-MEP50 complex,successfully enriched the PRMT5-MEP50 complex
CC(=O)N1CCC[C@H]1C(=O)N[C@H](C(=O)N[C@@H]1CCCCC[C@@H](C(=O)N[C@@H](Cc2ccc([N+](=O)[O-])cc2)C(=O)N[C@@H](CC(C(=O)O)C(=O)O)C(=O)N[C@@H](CCC(N)=O)C(=O)N[C@@H](CCCCNC(=O)COCCOCCOCCN=[N+]=[N-])C(N)=O)NC(=O)[C@H](CC(=O)O)NC(=O)[C@H](C)NC1=O)C(C)C [Compound 56],enrichment of the PRMT5-MEP50 complex by immobilized peptide,PRMT5-MEP50 complex,did not show significant interaction
"O=C(NC[C@H](O)CN1CCc2ccccc2C1)c1cc(NC2COC2)ncn1 [EPZ015666, reference compound]",effect on direct methylation activity of PRMT5,PRMT5-MEP50 [2],is able to inhibit
